Laboratory results published in US8012944B2, “Method for treating cancer using IAP antisense oligomer and chemotherapeutic agent” (Pharmascience Inc., priority 2003, dated 2011).
Oligonucleotides are written 5' to 3', each unit as a sugar letter and its base; * is a phosphorothioate linkage, no mark a phosphodiester; rarer units and linkages stand in square brackets, end groups in braces. Plain capitals give the bases only. d = 2'-deoxy (DNA); m = 2'-O-methyl

Legend:
Assay type in all cases: cell-based, human
[1] = system: XIAP protein; test: XIAP protein knock-down in T24 cells (XIAP ELISA, relative to total protein); conditions: for XIAP protein levels relative to total protein, compared to mock transfection (in words): first screen of the library
Source text: (§1) We used TaqMan quantitative PCR (described below) to assay for changes in mRNA levels after oligonucleotide treatment. We employed ELISA for determining XIAP protein levels and western blotting for determining HIAP1 protein levels. Transfection conditions were optimized with Lipofectamine plus or Lipofectamine 2000 (Life Technologies, Canada) on T24 bladder carcinoma cells or H460 non-small cell lung carcinoma cells, or lipofectin on SF-295 glioblastoma cells, using a fluorescein-tagged sense oligonucleotide (5′-mGmAGAAGATGACTGGTAAmCmA-3′; SEQ ID NO: 261) from XIAP spanning the start codon as a control. The results were visualized and gauged by epi-fluorescence microscopy. In the case of T24 cells, transfections were further optimized based on the ability of a published oligonucleotide to downregulate survivin expression (Li et al., Nat. Cell Biol. 1:461-466, 1999) (5′-U/TGTGCTATTCTGTGAAU/TU/T-3′ SEQ ID NO: 262). We optimized the transfection conditions based on the TaqMan results of survivin RNA knock-down detected with PCR primers and fluorescent probe, described in detail below. […] We then applied these conditions to screen for XIAP protein knock-down using the oligo library against T24 cells.
A standard colorimetric XIAP ELISA assay was performed using an affinity-purified rabbit polyclonal antibody to XIAP as a capture antibody, and was detected with a XIAP monoclonal antibody (MBL, Japan) and a biotinylated anti-mouse Ig antibody and horseradish peroxidase-conjugated streptavidin and TMB substrate. Alternatively, a polyclonal XIAP or HIAP1 antibody may be used to measure XIAP or HIAP1 protein levels, respectively.
The XIAP synthetic library of 96 antisense oligonucleotides was first screened for decreases in XIAP protein levels. Specifically, T24 cells (1.5×10^4 cells/well) were seeded in wells of a 96-well plate on day 1, and were cultured in antibiotic-free McCoy's medium for 24 hours. On day 2, the cells were transfected with XIAP antisense oligonucleotides as described above (oligonucleotides are labeled according to their plated position, i.e., A1 to H12, and include two repeats, A13 and B13 that contain lyophilized DNA pellets that stuck to the sealing membrane). Briefly, the nucleobase oligomers were diluted in 10 μl/well of serum-free, antibiotic-free McCoy's medium and then PLUS reagent was added. Lipofectamine was diluted in 10 μl/well of serum-free, antibiotic-free McCoy's medium, and both mixes were incubated for 15 minutes at room temperature. The mixes were then combined and incubated for 15 minutes at room temperature.
In the meantime, the complete medium was removed from the cells and 50 μl/well of serum-free, antibiotic-free medium was added to the cells. The transfection mixes were added to the well, and the cells were incubated for three hours. Then 30 μl/well of serum-free, antibiotic-free medium and 100 μl/well of antibiotic-free complete medium, containing 20% fetal bovine serum were added to each well.
At day 3, XIAP RNA levels were measured using quantitative real-time PCR techniques, as described above. At day 4, XIAP protein levels were measured by ELISA (FIGS. 1A, 1C, 1E, 1G, 1I, and 1K), and total cellular protein was measured biochemically (FIGS. 1B, 1D, 1F, 1H, 1J, and 1L; used to normalize the XIAP protein levels). The results were compared to a mock transfection sample (treated with the transfection agent but no oligonucleotide DNA was added, and then processed as for the other samples). Time course experiments determined that the optimal time for protein knock-down to be around 12 to 24 hours. […]

[2] = system: XIAP RNA; test: XIAP RNA knock-down in T24 cells (TaqMan quantitative PCR)
Source text: as §1
RNA was extracted from cells lysed in RLT buffer (QIAGEN, Valencia, Calif.), and purified using QIAGEN RNeasy columns/kits. Real-time quantitative PCR was performed on a Perkin-Elmer ABI 7700 Prism PCR machine. RNA was reverse transcribed and amplified according to the TaqMan Universal PCR Master Mix protocol of PE Biosystems, using primers and probes designed to specifically recognize XIAP, HIAP1, survivin, or GAPDH. For human survivin, the forward primer was 5′-[…]-3′ (SEQ ID NO: 263), the reverse primer was 5′-GAAAGGAAAGCGCAACCG-3′ (SEQ ID NO: 264), and the probe was 5′-(FAM)[…](TAMRA)-3′ (SEQ ID NO: 265). For human HIAP1, the forward primer was 5′-[…]-3′ (SEQ ID NO: 266), the reverse primer was 5′-[…]-3′ (SEQ ID NO: 267), and the probe was 5′-(FAM)[…](TAMRA)-3′ (SEQ ID NO: 268). For human XIAP, the forward primer was 5′-[…]-3′ (SEQ ID NO: 269), the reverse primer was 5′-[…]-3′ (SEQ ID NO: 270), and the probe was 5′-(FAM)[…](TAMRA)-3′ (SEQ ID NO: 271). For human GAPDH, the forward primer was 5′-GAAGGTGAAGGTCGGAGTC-3′ (SEQ ID NO: 272), the reverse primer was 5′-GAAGATGGTGATGGGATTC-3′ (SEQ ID NO: 273), and the probe was 5′-(JOE)[…](TAMRA)-3′ (SEQ ID NO: 274). FAM is 6-carboxyfluoroscein, JOE is 6-carboxy-4,5-dichloro-2,7-dimethoxyfluoroscein, and TAMRA is 6-carboxy-N,N,N′,N′-tetramethylrhodamine. FAM and JOE are 5′ reporter dyes, while TAMRA is a 3′ quencher dye.
Relative quantification of gene expression was performed as described in the PE Biosystems manual using GAPDH as an internal standard. The comparative Ct (cycle threshold) method was used for relative quantitation of IAP mRNA levels compared to GAPDH mRNA levels. Briefly, real-time fluorescence measurements were taken at each PCR cycle and the threshold cycle (Ct) value for each sample was calculated by determining the point at which fluorescence exceeded a threshold limit of 30 times the baseline standard deviation. The average baseline value and the baseline SD are calculated starting from the third cycle baseline value and stopping at the baseline value three cycles before the signal starts to exponentially rise. The PCR primers and/or probes for the specific IAPs were designed to span at least one exon-intron boundary separated by 1 kb or more of genomic DNA, to reduce the possibility of amplifying and detecting genomic DNA contamination. The specificity of the signal, and possible contamination from DNA, were verified by treating some RNA samples with either DNase or RNase, prior to performing the reverse transcription and PCR reaction steps.
The XIAP synthetic library of 96 antisense oligonucleotides was first screened for decreases in XIAP protein levels. […]

[3] = system: XIAP mRNA; test: XIAP mRNA knock-down in H460 cells (real-time RT-PCR / TaqMan)
Procedure, shortened: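 NCI-H460 cells transfected with phosphorothioate antisense oligonucleotides via Lipofectamine 2000; RNA isolated after 6 h treatment. XIAP mRNA quantified by one-step TaqMan real-time RT-PCR, comparative Ct (threshold 30× baseline SD), normalized to GAPDH and expressed relative to untreated control cells.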

[4] = system: XIAP mRNA; test: as above; conditions: 2 × 2 MBO; NCI-H460 cells, 9 hours post-transfection; relative level (mock control 1.01)

Q: Which results are given for “GAAAGTAATATTTAAGCAG (antisense; chemistry not fully specified) [Code E2]”?
A: XIAP down-regulation T24 protein [1]: 51%; XIAP protein levels relative to total protein, compared to mock transfection (in words) [1]: some decrease; XIAP down-regulation T24 RNA [2]: 54%; XIAP down-regulation H460 RNA [3]: 60%

Q: What does the source list for “GTTGTTCCCAAGGGTCTTC (antisense; sugars from the 5' end m2 d15 m2, backbone, methylation of C and T or U not given here; further chemistry not fully specified) [Code E8]”?
A: XIAP down-regulation T24 protein [1]: 56%; XIAP down-regulation T24 RNA [2]: 72%; XIAP down-regulation H460 RNA [3]: 44%

Q: What does the source list for “CAGGGTTCCTCGGGTATAT (antisense; sugars from the 5' end m2 d15 m2, backbone and T or U not given here; further chemistry not fully specified) [Code B6]”?
A: XIAP down-regulation T24 protein [1]: 47%; XIAP protein levels relative to total protein, compared to mock transfection (in words) [1]: some decrease; XIAP down-regulation T24 RNA [2]: 51%

Q: Which “XIAP down-regulation T24 protein” value [1] does the source give for “GTGTAGTAGAGTCCAGCAC (antisense; sugars from the 5' end m2 d15 m2, backbone, methylation of C and T or U not given here; further chemistry not fully specified) [Code F6]” here?
A: The value was 39%.

Q: What about the “XIAP protein levels relative to total protein, compared to mock transfection (in words)” value [1] of the same sequence?
A: The value was “some decrease”.

Q: What about the “XIAP down-regulation T24 RNA” value [2] of the same sequence?
A: The value was 34%.

Q: How did the “XIAP down-regulation T24 protein” value [1] turn out when “ACCATTCTGGATACCAGAA (mA*mCdCdAdTdTdCdTdGdGdAdTdAdCdCdAdGmA*mA) [Code C5]” was run?
A: The value was 54%.

Q: What about the “XIAP protein levels relative to total protein, compared to mock transfection (in words)” value [1] of the same sequence?
A: Its value is “some decrease”.

Q: What about the “XIAP down-regulation T24 RNA” value [2] of the same sequence?
A: Its value is 71%.

Q: With “GCTGAGTCTCCATATTGCC [G4] (chemistry not fully specified) [Code G4]” as the sequence, how does the “XIAP down-regulation T24 protein” value [1] read?
A: Its value is 48%.

Q: What about the “XIAP protein levels relative to total protein, compared to mock transfection (in words)” value [1] of the same sequence?
A: Its value is “some decrease”.

Q: What about the “XIAP down-regulation T24 RNA” value [2] of the same sequence?
A: Its value is 34%.

Q: What about the “XIAP down-regulation H460 RNA” value [3] of the same sequence?
A: Its value is 51%.

Q: How did the “XIAP RNA” value [4] turn out when “GAAAGGACTTTACTTTATC (antisense; sugars from the 5' end m2 d15 m2, backbone, methylation of C and T or U not given here; further chemistry not fully specified) [Code D8]” was run?
A: The value was 0.55.

Q: What about the “XIAP down-regulation T24 protein” value [1] of the same sequence?
A: The value was 26%.

Q: What about the “XIAP protein levels relative to total protein, compared to mock transfection (in words)” value [1] of the same sequence?
A: The value was “some decrease”.

Q: What about the “XIAP down-regulation T24 RNA” value [2] of the same sequence?
A: The value was 38%.

Q: And the “XIAP down-regulation H460 RNA” value [3]?
A: Its value is 49%.

Q: With “CTTGTCCACCTTTTCTAAA (antisense; sugars from the 5' end m2 d15 m2, backbone and T or U not given here; further chemistry not fully specified) [Code E3]” as the sequence, how does the “XIAP RNA” value [4] read?
A: The value was 0.48.

Q: What about the “XIAP down-regulation T24 protein” value [1] of the same sequence?
A: Its value is 64%.

Q: And the “XIAP protein levels relative to total protein, compared to mock transfection (in words)” value [1]?
A: The value was “some decrease”.

Q: What about the “XIAP down-regulation T24 RNA” value [2] of the same sequence?
A: Its value is 53%.

Q: And the “XIAP down-regulation H460 RNA” value [3]?
A: The value was 55%.

Q: “AATATGTAAACTGTGATGC (mA*mAdTdAdTdGdTdAdAdAdCdTdGdTdGdAdTmG*mC; antisense) [Code C2]” was tested. Which “XIAP RNA” value [4] did it give?
A: Its value is 0.33.

Q: What about the “XIAP down-regulation T24 protein” value [1] of the same sequence?
A: The value was 45%.

Q: What about the “XIAP protein levels relative to total protein, compared to mock transfection (in words)” value [1] of the same sequence?
A: Its value is “some decrease”.

Q: And the “XIAP down-regulation T24 RNA” value [2]?
A: The value was 36%.

Q: And the “XIAP down-regulation H460 RNA” value [3]?
A: Its value is 70%.

Q: How did the “XIAP RNA” value [4] turn out when “TGCCAGTGTTGATGCTGAA (antisense; chemistry not fully specified) [Code C4]” was run?
A: Its value is 0.22.

Q: And the “XIAP down-regulation T24 protein” value [1]?
A: The value was 56%.

Q: What about the “XIAP protein levels relative to total protein, compared to mock transfection (in words)” value [1] of the same sequence?
A: Its value is “some decrease”.

Q: What about the “XIAP down-regulation T24 RNA” value [2] of the same sequence?
A: The value was 28%.

Q: And the “XIAP down-regulation H460 RNA” value [3]?
A: Its value is 77%.

Q: “GTATAAAGAAACCCTGCTC (antisense; sugars from the 5' end m2 d15 m2, backbone and T or U not given here; further chemistry not fully specified) [Code D4]” was tested. Which “XIAP RNA” value [4] did it give?
A: Its value is 0.48.

Q: What about the “XIAP down-regulation T24 protein” value [1] of the same sequence?
A: The value was 43%.

Q: What about the “XIAP protein levels relative to total protein, compared to mock transfection (in words)” value [1] of the same sequence?
A: The value was “some decrease”.

Q: What about the “XIAP down-regulation T24 RNA” value [2] of the same sequence?
A: The value was 12%.

Q: And the “XIAP down-regulation H460 RNA” value [3]?
A: The value was 51%.
